{"source": "patent US12390537B2", "about": "“Compositions of polymeric microdevices and methods of use thereof in cancer immunotherapy” (Massachusetts Institute of Technology, priority 2020, dated 2025)", "type_in_all_cases": "in vivo, mice", "key": {"[1]": {"tested_on": "immune cells in TME of B16F10 melanoma tumors", "test": "Flow cytometry of immune cells in B16F10 TME", "procedure": "Mice bearing B16F10 tumors were treated with the following 4 experimental groups (n=8): untreated, 1×EPs, 3×cGAMP-S, and 1×cGAMP-S plus cGAMP-MPs, respectively (FIG. 4A). Tumors were collected at day 16 post tumor inoculation and cut into 50-100 mg small pieces in a 1.5 mL microcentrifuge tube. The tumors were lysed in radioimmunoprecipitation assay (RIPA) buffer (Sigma-Aldrich), homogenized, and centrifuged at 20130 rcf for 10 min. The protein content in the supernatant was quantified using a bicinchoninic acid protein assay kit (Thermo Fisher Scientific, MA, USA). Equal amounts of proteins (20 μg) were separated on a 4 to 15% gradient SDS-polyacrylamide gel (Bio-Rad, Hercules, CA) and electro-transferred to nitrocellulose membrane. The membranes were then blocked with 5% milk in tris-buffered saline supplemented with 0.05% Tween 20 and further incubated with GAPDH monoclonal antibody (Invitrogen, CA, cat. no. MA5-27912), phospho-TBK1/NAK (Ser172) (D52C2) Rabbit mAb (Cell Signaling Technology, cat. no. 5483S), or phospho-IRF-3 (S396) Rabbit mAb (Cell Signaling Technology, cat. no. 4947S) at 4° C. overnight. The membranes were then incubated with goat anti-rabbit IgG (H+L) Secondary Antibody, HRP (Invitrogen, cat. no. TG266717) for 1 h at room temperature. Protein bands were visualized by chemiluminescence using the ECL Western Blotting Substrate (Thermo Fisher Scientific, MA).\nTo stain the intracellular marker, e.g., IFN-γ, cells were pre-stimulated with cell stimulation cocktail (eBioscience, cat. no. 00-4970-93) for 4-6 h, fixed and permeabilized using fixation/permeabilization solution kit (BD, cat. no. 554714), and then stained with both anti-IFN-γ and other surface antibodies. Antibodies used for flow cytometry studies were anti-CD86-BUV395 (BD, cat. no. 564199), anti-CD45-BUV737 (BD, cat. no. 564880), anti-TCRβ-BV421 (Biolegend, cat. no. 109229), anti-NK1.1-BV605 (Biolegend, cat. no. 108739), anti-NK1.1-BV605 (Biolegend, cat. no. 108739), anti-CD8a-FITC (BD, cat. no. 553030), anti-CD4-PerCP/Cy5.5 (BD, cat. no. 550954), anti-CD62L-PE (Biolegend, cat. no. 104407), anti-CD19-PE/Cy7 (eBioscience, cat. no. 25-0193-81), anti-CD3-PE/594 (Biolegend, cat. no. 100245), anti-FOXP3-APC (eBioscience, cat. no. 17-5773-80), anti-CD11b-AF700 (Biolegend, cat. no. 201222), anti-CD8a-BV421 (Biolegend, cat. no. 100737), anti-Ly6g-BV510 (Biolegend, cat. no. 127633), anti-Siglec F-BV605 (BD, cat. no. 740388), anti-MHC II-BV786 (BD, cat. no. 743875), anti-Ly6c-AF488 (Biolegend, cat. no. 128021), anti-CD11c-PerCP/Cy5.5 (Biolegend, cat. no. 117327), anti-CD206-PE (Biolegend, cat. no. 141705), anti-CD197-PE/594 (Biolegend, cat. no. 120121), anti-F4/80-PE/Cy7 (Biolegend, cat. no. 123113), anti-CD200R3-APC (Biolegend, cat. no. 142207), anti-CD11b-AF700 (Biolegend, cat. no. 101222), and viability dye eFluor 780 (eBiosciecne, cat. no. 65-0865-14). Flow cytometry data were acquired on an LSRFortessa cell analyzer (BD) and analyzed using FlowJo software."}, "B16F10 tumor recurrence": {"tested_on": "B16F10 tumor recurrence", "test": "Treatment of surgically removed B16F10 tumor and re-challenge", "source_text": "2×10^5 B16F10 cells were subcutaneously injected to the right rear flank of C57BL/6 female mice. Six days after tumor inoculation, B16F10 tumor-bearing mice were randomly divided into 4 experimental groups (n=8 for each group): untreated, 1×cGAMP-S plus EPs, 3×cGAMP-S, and 1×cGAMP-S plus cGAMP-MPs, respectively. ˜99% of tumor volume was surgically removed, leaving ˜1% residual tumor to mimic residual microtumors. Upon the removal of tumors, cGAMP-MPs (10m of cGAMP-S, 5 PLGA-1 microdevices containing 10 μg of cGAMP, and 5 PLGA-2 microdevices containing 10 μg of cGAMP) or 1×cGAMP-S plus EPs (10m of cGAMP-S, 5 each of empty PLGA-1 and PLGA-2 microdevices) in 50 μL MC solution were directly applied to the surgical bed through a micropipette. For 3×cGAMP-S treated group, 10 μg of cGAMP-S was applied to the surgical bed after surgery followed by intratumoral injections of 10 μg of cGAMP at days 4 and 8 post-surgery (FIG. 6A). The wound was closed by an autoclip wound clip system. Tumor size was measured with a digital caliper every other day starting at day 7 post tumor inoculation. For the re-challenge experiment, 2×10^5 B16F10 cells were subcutaneously injected to the left rear flank of treated mice with complete responses. Tumor size was measured every other day with a digital caliper."}, "IFNγ+CD8+ T cells": {"tested_on": "IFNγ+CD8+ T cells", "test": "Flow cytometry of IFNγ+CD8+ T cells in serum, B16F10 model", "procedure": "To stain the intracellular marker, e.g., IFN-γ, cells were pre-stimulated with cell stimulation cocktail (eBioscience, cat. no. 00-4970-93) for 4-6 h, fixed and permeabilized using fixation/permeabilization solution kit (BD, cat. no. 554714), and then stained with both anti-IFN-γ and other surface antibodies. […] Flow cytometry data were acquired on an LSRFortessa cell analyzer (BD) and analyzed using FlowJo software.\nTo study whether activation of STING in the TME triggers systemic antitumor immunity, mouse serum was collected from the antitumor efficacy study of B16F10 melanoma model (FIG. 3D) 21 and 28 days after tumor inoculation and analyzed by flow cytometry. cGAMP-MPs and 4×cGAMP-S treatments increased 5.1- and 4.9-fold of IFNγ+CD8+ T cells in serum at day 21 compared to the untreated group (FIG. 5A). […]"}, "[2]": {"details": "day 16, cGAMP-MPs single injection, cGAMP-S three injections"}}}
{"smiles": "Nc1nc2c(ncn2[C@@H]2O[C@@H]3COP(=O)(O)O[C@H]4[C@@H](O)[C@H](n5cnc6c(N)ncnc65)O[C@@H]4COP(=O)(O)O[C@H]3[C@H]2O)c(=O)[nH]1", "note": "[cGAMP-S, 3′3′-cGAMP]", "values": [{"measurement": "polarization of macrophages within the TME", "setting": "[1]; 3 doses of soluble cGAMP or 1 dose of cGAMP-MPs", "result": "repolarization of M2-like macrophages in the tumor to M1-like phenotype"}, {"measurement": "increase of CD8+/CD4+ T cell ratio", "setting": "[1]; [2]", "result": 1.2, "unit": "fold"}, {"measurement": "increase of TILs compared to untreated", "setting": "[1]; [2]", "result": "approximately 23.5 fold"}, {"measurement": "increase of surface expression of CD86 on tumor infiltrating DCs", "setting": "[1]; [2]", "result": 1.7, "unit": "fold"}, {"measurement": "increase of tumor-infiltrating CD4+ T cells", "setting": "[1]; [2]", "result": 23.6, "unit": "fold"}, {"measurement": "increase of tumor-infiltrating CD8+ T cells", "setting": "[1]; [2]", "result": 24.4, "unit": "fold"}, {"measurement": "infiltrating natural killer (NK) cells", "setting": "[1]; [2]", "result": "increased"}, {"measurement": "influx of DCs, basophils, monocytes and macrophages", "setting": "[1]; [2]", "result": "promoted the influx"}, {"measurement": "tumor recurrence rate", "setting": "B16F10 tumor recurrence; cGAMP-MPs single application, cGAMP-S three doses, untreated 100%", "result": 25, "unit": "%"}, {"measurement": "tumor recurrence rate", "setting": "B16F10 tumor recurrence; single dose of cGAMP-S plus EPs", "result": 87.5, "unit": "%"}, {"measurement": "survival after re-challenge", "setting": "B16F10 tumor recurrence; tumor-free mice re-challenged with B16F10 cells", "result": "prolonged survival time"}, {"measurement": "tumor growth after re-challenge versus naïve mice", "setting": "B16F10 tumor recurrence; tumor-free mice re-challenged with B16F10 cells at day 60", "result": "significantly slower"}, {"measurement": "increase of IFNγ+CD8+ T cells in serum compared to untreated", "setting": "IFNγ+CD8+ T cells; day 21, cGAMP-MPs single injection, cGAMP-S four injections", "result": 4.9, "unit": "fold"}, {"measurement": "number of IFNγ+CD8+ T cells in serum", "setting": "IFNγ+CD8+ T cells; day 28 versus day 21", "result": "remained at an identical level"}]}
